The source of these data is patent US20210290651A1, “METHODS OF TREATING VIRAL INFECTIONS USING INHIBITORS OF NUCLEOTIDE SYNTHESIS PATHWAYS” (priority 2020, published 2021).

Values joined by “and” are separate entries in the source; they are usually repeats but may differ in a detail not shown here. Equal entries are not always repeated. Where two headings read alike, the source gives them in different places.

The conditions of data set [1]: daily times 5 schedule; cited from earlier work.
The conditions of data set [2]: patient with papillary carcinoma of the thyroid; cited from earlier work.
The test system of the next data set is SARS-CoV-2. Put plainly: microbe, parasite or virus in culture. The class given is cell-based.
The test system of another data set is OMP decarboxylase. The conditions noted are these: for PYR concentration: 1 μM; for OMP concentration / Orotate concentration / UMP concentration: PYR 1 μM.
The next data set relates to advanced lung cancer. The conditions noted are these: weekly rapid iv injection, previously treated patients with advanced lung cancer; cited from earlier work.
In a further data set the test system is HRV1A strain 2060. The data set is described as follows: Rhinovirus antiviral assay, inhibition of virus-induced cell killing (XTT) in H1-HeLa cells. The following applies: Enterovirus. The format is cell-based.
A further data set can be described thus: in vitro. The conditions noted are these: monkey.
[3] abbreviates: remdesivir dose response, brequinar 0.000 μM.
Setting [4] is: remdesivir dose response, brequinar 0.078 μM.
Where [5] appears, read: remdesivir dose response, brequinar 0.156 μM.
Setting [6] is: remdesivir dose response, brequinar 0.313 μM.
[7] abbreviates: remdesivir dose response, brequinar 1.250 μM.

Regarding `Cc1c(-c2ccc(-c3ccccc3F)cc2)nc2ccc(F)cc2c1C(=O)O` [Brequinar sodium], in data set [1], the maximum tolerated dose is on record as 300 mg/m^2 and the “recommended phase II dose” value is listed as 250 mg/m^2. Moreover, in data set [2], the tumor response entry is “One mixed response”.

One may read the EC90 as the concentration at which the effect reaches the 90% level. The compound `CC(C)C[C@H](NC(=O)OCc1ccccc1)C(=O)N[C@@H](CC1CCNC1=O)C(O)S(=O)(=O)[O-].[Na+]` (stereo partly drawn) [GC-376] gave a CC50 in the data set on Vero E6 cells of over 50 µM. In the data set on SARS-CoV-2, the “E(Max)” value was determined as 100 and the EC90 turned out to be 5.73 µM. Also, in the data set on SARS-CoV-2 (read-out: EC50: Concentration inhibiting 50% of the maximum CPE-protection effect of the compound (Emax)), the EC50 was determined as 2.04 µM. Further, the IC50 with SARS-CoV-2 (read-out: IC50: Concentration inhibiting 50% of the virus-induced CPE compared to the no infection control) was 2.04 µM.

Regarding `NC(=O)c1[nH]nc([C@@H]2O[C@H](CO)[C@@H](O)[C@H]2O)c1O` [PYR, 5-[(2S,3R,4S,5R)-3,4-dihydroxy-5-(hydroxymethyl)oxolan-2-yl]-4-hydroxy-1H-pyrazole-3-carboxamide], the PYR concentration with OMP decarboxylase (1 h) and with OMP decarboxylase (4 h) was 0 ng/mL in each case. Further, the OMP concentration in the data set with OMP decarboxylase (Cells, 1 hr) amounted to 0 ng/mL; in the data set with OMP decarboxylase (Cells, 4 hr), 10 ng/mL; with OMP decarboxylase (Cells, 24 hr) it was 11 ng/mL; with OMP decarboxylase (Supernatant, 24 hr) it was 43 ng/mL. Besides, the Orotate concentration worked out at 339 ng/mL in the data set with OMP decarboxylase (Cells, 1 hr); 1170 ng/mL with OMP decarboxylase (Cells, 4 hr); 1220 ng/mL in the data set with OMP decarboxylase (Cells, 24 hr); 10005 ng/mL with OMP decarboxylase (Supernatant, 24 hr). The UMP concentration with OMP decarboxylase (Cells, 1 hr) was found to be 552 ng/mL; in the data set with OMP decarboxylase (Cells, 4 hr), 408 ng/mL; in the data set on OMP decarboxylase (Cells, 24 hr), 326 ng/mL; with OMP decarboxylase (Supernatant, 24 hr), 69 ng/mL. For the same compound, the therapeutic value entry in the data set with advanced lung cancer is listed as “little therapeutic value as a single agent”.

The compound `CCOC(=O)/C=C/[C@H](C[C@@H]1CCNC1=O)NC(=O)[C@@H](CC(=O)[C@@H](NC(=O)c1cc(C)on1)C(C)C)Cc1ccc(F)cc1` [Rupintrivir] came in with an EC50 in the data set with HRV1A strain 2060 of 0.0107 µM.

With `CCC(CC)COC(=O)[C@H](C)N[P@](=O)(OC[C@H]1O[C@@](C#N)(c2ccc3c(N)ncnn23)[C@H](O)[C@@H]1O)Oc1ccccc1` [remdesivir], in the data set on Vero E6 cells (remdesivir co-treatment with brequinar), the “cytotoxicity of the co-treatment” value was “No enhanced cytotoxicity was detected”. Further, the “E(Max)” value with SARS-CoV-2 stood at 100. Also, the “E(Max) of remdesivir” value with SARS-CoV-2 was 95.33 and 96.37 and 95.10; with SARS-CoV-2 (brequinar 0.000 μM) it was 92.02; in the data set with SARS-CoV-2 (brequinar 0.078 μM) it was 97.37; with SARS-CoV-2 (brequinar 0.156 μM) it was 122.66; in the data set with SARS-CoV-2 (brequinar 0.313 μM) it was 97.35; in the data set with SARS-CoV-2 (brequinar 1.250 μM), 100.22. The “Max Data” value in the data set on SARS-CoV-2 was 104.7% and 106.8% and 101.9%; in the data set with SARS-CoV-2 (setting [3]), 97.1%; with SARS-CoV-2 (setting [4]), 94.4%; in the data set with SARS-CoV-2 (setting [5]), 102.6%; with SARS-CoV-2 (setting [6]), 103.8%; in the data set with SARS-CoV-2 (setting [7]), 105.1%. Besides, the “Min Data” value in the data set on SARS-CoV-2 was 75.9% and 78.9% and 69.5%; with SARS-CoV-2 (setting [3]) it was −11%; in the data set with SARS-CoV-2 (setting [4]) it was −1.9%; in the data set on SARS-CoV-2 (setting [5]), 22.1%; in the data set with SARS-CoV-2 (setting [6]), 55.4%; in the data set with SARS-CoV-2 (setting [7]), 80.1%. In the data set with SARS-CoV-2, the “increase in activity of remdesivir” value is recorded as over 6.8 fold. In the data set with SARS-CoV-2 (Severe acute respiratory syndrome coronavirus 2, Vero C1008), this compound displayed an EC90 of 1.4 µM. Further, the EC50 with SARS-CoV-2 (Severe acute respiratory syndrome coronavirus 2, Vero C1008, brequinar 0.000 μM; read-out: EC50 of remdesivir) is 0.801 µM; in the data set on SARS-CoV-2 (Severe acute respiratory syndrome coronavirus 2, Vero C1008, brequinar 0.078 μM; read-out: EC50 of remdesivir), 0.277 µM; with SARS-CoV-2 (Severe acute respiratory syndrome coronavirus 2, Vero C1008, brequinar 0.156 μM; read-out: EC50 of remdesivir), 0.186 µM; in the data set on SARS-CoV-2 (Severe acute respiratory syndrome coronavirus 2, Vero C1008, brequinar 0.313 μM; extrapolated value; read-out: EC50 of remdesivir), 0.003 µM; with SARS-CoV-2 (Severe acute respiratory syndrome coronavirus 2, Vero C1008, brequinar 1.250 μM; read-out: EC50 of remdesivir), under 0.0195 µM; in the data set with SARS-CoV-2 (Severe acute respiratory syndrome coronavirus 2, Vero C1008, read-out: EC50 of remdesivir), under 0.0195 µM. The EC50 in the data set with SARS-CoV-2 (Severe acute respiratory syndrome coronavirus 2, Vero C1008; read-out: EC50: Concentration inhibiting 50% of the maximum CPE-protection effect of the compound (Emax)) stood at 0.82 µM. For the same compound, the IC50 is 0.823 µM in the data set on SARS-CoV-2 (Severe acute respiratory syndrome coronavirus 2, Vero C1008, brequinar 0.000 μM; read-out: IC50 of remdesivir); 0.292 µM in the data set on SARS-CoV-2 (Severe acute respiratory syndrome coronavirus 2, Vero C1008, brequinar 0.078 μM; read-out: IC50 of remdesivir); 0.102 µM in the data set on SARS-CoV-2 (Severe acute respiratory syndrome coronavirus 2, Vero C1008, brequinar 0.156 μM; read-out: IC50 of remdesivir); 0.003 µM in the data set on SARS-CoV-2 (Severe acute respiratory syndrome coronavirus 2, Vero C1008, brequinar 0.313 μM; extrapolated value; read-out: IC50 of remdesivir); under 0.0195 µM in the data set on SARS-CoV-2 (Severe acute respiratory syndrome coronavirus 2, Vero C1008, brequinar 1.250 μM; read-out: IC50 of remdesivir); under 0.0195 µM with SARS-CoV-2 (Severe acute respiratory syndrome coronavirus 2, Vero C1008, read-out: IC50 of remdesivir). In addition, the IC50 in the data set with SARS-CoV-2 (Severe acute respiratory syndrome coronavirus 2, Vero C1008, read-out: remdesivir concentration to suppress viral replication to 50%) was 0.1 µM; in the data set with SARS-CoV-2 (Severe acute respiratory syndrome coronavirus 2, Vero C1008; read-out: IC50: Concentration inhibiting 50% of the virus-induced CPE compared to the no infection control) it was 0.82 µM. Moreover, in the data set with SARS-CoV-2 (Vero E6), the “SI50: Selective Index 50 = CC50/IC50” value is over 61. Also, the CC50 was over 50 µM in the data set “in vitro” (CC50, Vero E6); over 50 µM in “in vitro” (CC50 of remdesivir); over 25 µM in the data set “in vitro” (CC50 of remdesivir, brequinar 0.000 μM); over 50 µM in the data set “in vitro” (CC50 of remdesivir, brequinar 0.078 μM); over 50 µM in “in vitro” (CC50 of remdesivir, brequinar 0.156 μM); over 50 µM in “in vitro” (CC50 of remdesivir, brequinar 0.313 μM). In “in vitro” (CC50 of remdesivir, brequinar 1.250 μM), the CC50 was over 50 µM.

In the case of `NC(=O)c1ncn([C@@H]2O[C@H](CO)[C@@H](O)[C@H]2O)n1` [ribavirin], the IC50 with SARS-CoV-2 (Severe acute respiratory syndrome coronavirus 2, Vero C1008, read-out: IC50: Concentration inhibiting 50% of the virus-induced CPE compared to the no infection control) is over 50 µM. Besides, the EC90 in the data set with SARS-CoV-2 (Severe acute respiratory syndrome coronavirus 2, Vero C1008; Vero E6, MOI of 0.05) is over 50 µM. The CC50 in “in vitro” (CC50) is over 50 µM.
